We go through 21 compounds from patent US12268667B2, “JAK1 pathway inhibitors for the treatment of prurigo nodularis” (Incyte Corporation, priority 2021, dated 2025).

Test [1] deals with human JAK1 (a.a. 837-1142) (Homo sapiens, UniProt P23458). As to the kind of experiment: In vitro JAK kinase assay (HTRF), JAK1. The class given is biochemical. To be noted: 1 mM ATP. For orientation: In TR-FRET formats the signal depends on donor and acceptor labels being close together.
Method: (§1) The catalytic activity of JAK1, JAK2 or JAK3 are assayed by measuring the phosphorylation of a biotinylated peptide. The phosphorylated peptide was detected by homogenous time resolved fluorescence (HTRF). […] Reactions are carried out at room temperature for 1 hour and then stopped with 20 μL 45 mM EDTA, 300 nM SA-APC, 6 nM Eu-Py20 in assay buffer (Perkin Elmer, Boston, MA). Binding to the Europium labeled antibody takes place for 40 minutes and HTRF signal was measured on a Fusion plate reader (Perkin Elmer, Boston, MA).
Test [2] concerns the target human JAK2 (a.a. 828-1132) (Homo sapiens (Human), UniProt O60674). The test can be described thus: In vitro JAK kinase assay (HTRF), JAK2. The format is biochemical. The settings on record: JAK2/JAK1 IC50 ratio at 1 mM ATP.
Method: as §1

A word on the IC50: it is the concentration at which inhibition is half-maximal.

Sequence of human JAK2 (a.a. 828-1132) (O60674 828-1132): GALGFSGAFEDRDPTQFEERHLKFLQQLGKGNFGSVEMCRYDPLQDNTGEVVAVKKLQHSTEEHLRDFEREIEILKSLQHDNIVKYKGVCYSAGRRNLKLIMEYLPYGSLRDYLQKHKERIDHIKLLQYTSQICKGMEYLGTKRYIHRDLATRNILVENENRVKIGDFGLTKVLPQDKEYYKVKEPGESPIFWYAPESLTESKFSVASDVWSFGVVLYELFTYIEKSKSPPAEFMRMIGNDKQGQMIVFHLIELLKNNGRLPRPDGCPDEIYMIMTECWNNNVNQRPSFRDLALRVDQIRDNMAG

In test [1], `N#CCC1(n2cc(-c3ncnc4[nH]ccc34)cn2)CN([C@H]2CC[C@@H](Oc3cc(CCO)nc(C(F)(F)F)n3)CC2)C1` [Compound 18, {1-(cis-4-{[6-(2-hydroxyethyl)-2-(trifluoromethyl)pyrimidin-4-yl]oxy}cyclohexyl)-3-[4-(7H-pyrrolo[2,3-d]pyrimidin-4-yl)-1H-pyrazol-1-yl]azetidin-3-yl}acetonitrile] yielded an IC50 of less than 10 nM. In addition, the JAK2/JAK1 in test [2] is more than 10.
The corresponding values for `N#CCC1(n2cc(-c3ncnc4[nH]ccc34)cn2)CN(C2CCN(C(=O)Nc3ccc(F)cc3C(F)(F)F)CC2)C1` [Compound 2, 4-{3-(Cyanomethyl)-3-[4-(7H-pyrrolo[2,3-d]pyrimidin-4-yl)-1H-pyrazol-1-yl]azetidin-1-yl}-N-[4-fluoro-2-(trifluoromethyl)phenyl] piperidine-1-carboxamide] are less than 10 nM and more than 10.
Taken in the same sequence, the figures for `N#CCC1(n2cc(-c3ncnc4[nH]ccc34)cn2)CN(C2CCN(C(=O)c3ccnc(C(F)(F)F)n3)CC2)C1` [Compound 3, [3-[4-(7H-pyrrolo[2,3-d]pyrimidin-4-yl)-1H-pyrazol-1-yl]-1-(1-{[2-(trifluoromethyl)pyrimidin-4-yl]carbonyl}piperidin-4-yl)azetidin-3-yl]acetonitrile] were less than 10 nM and more than 10.
The corresponding values for `N#CC[C@]1(n2cc(-c3ncnc4[nH]ccc34)cn2)C[C@H](N2CCC(Oc3cc(CN4CCC[C@H]4CO)cc(C(F)(F)F)n3)CC2)C1` [Compound 12, {trans-3-(4-{[4-{[(2S)-2-(hydroxymethyl)pyrrolidin-1-yl]methyl}-6-(trifluoromethyl)pyridin-2-yl]oxy}piperidin-1-yl)-1-[4-(7H-pyrrolo[2,3-d]pyrimidin-4-yl)-1H-pyrazol-1-yl]cyclobutyl}acetonitrile] are less than 10 nM and more than 10.
`N#CCC1(n2cc(-c3ncnc4[nH]ccc34)cn2)CN([C@H]2CC[C@@H](Oc3cc(CN4CC[C@@H](O)C4)cc(C(F)(F)F)n3)CC2)C1` [Compound 21, {1-(cis-4-{[4-{[(3R)-3-hydroxypyrrolidin-1-yl]methyl}-6-(trifluoromethyl)pyridin-2-yl]oxy}cyclohexyl)-3-[4-(7H-pyrrolo[2,3-d]pyrimidin-4-yl)-1H-pyrazol-1-yl]azetidin-3-yl}acetonitrile] came in with an IC50 in test [1] of less than 10 nM. Also, the JAK2/JAK1 in test [2] is listed as more than 10.
The compound `N#CC[C@]1(n2cc(-c3ncnc4[nH]ccc34)cn2)C[C@H](N2CCC(Oc3cc(CCO)cc(C(F)(F)F)n3)CC2)C1` [Compound 26, {trans-3-(4-{[4-(2-hydroxyethyl)-6-(trifluoromethyl)pyridin-2-yl]oxy}piperidin-1-yl)-1-[4-(7H-pyrrolo[2,3-d]pyrimidin-4-yl)-1H-pyrazol-1-yl]cyclobutyl}acetonitrile] came in with an IC50 in test [1] of less than 10 nM. Further, in test [2], the JAK2/JAK1 was more than 10.
The corresponding values for `N#CCC1(n2cc(-c3ncnc4[nH]ccc34)cn2)CN([C@H]2CC[C@@H](Oc3cc(CN4CC[C@H](O)C4)cc(C(F)(F)F)n3)CC2)C1` [Compound 22, {1-(cis-4-{[4-{[(3S)-3-hydroxypyrrolidin-1-yl]methyl}-6-(trifluoromethyl)pyridin-2-yl]oxy}cyclohexyl)-3-[4-(7H-pyrrolo[2,3-d]pyrimidin-4-yl)-1H-pyrazol-1-yl]azetidin-3-yl}acetonitrile] are less than 10 nM and more than 10.
The corresponding values for `C[C@H](O)CNCc1cc(OC2CCN([C@H]3C[C@](CC#N)(n4cc(-c5ncnc6[nH]ccc56)cn4)C3)CC2)nc(C(F)(F)F)c1` [Compound 25, {trans-3-(4-{[4-({[(2S)-2-hydroxypropyl]amino}methyl)-6-(trifluoromethyl)pyridin-2-yl]oxy}piperidin-1-yl)-1-[4-(7H-pyrrolo[2,3-d]pyrimidin-4-yl)-1H-pyrazol-1-yl]cyclobutyl}acetonitrile] are less than 10 nM and more than 10.
Taken in the same sequence, the figures for `CCNCc1cc(O[C@H]2CC[C@@H](N3CC(CC#N)(n4cc(-c5ncnc6[nH]ccc56)cn4)C3)CC2)nc(C(F)(F)F)c1` [Compound 19, {1-(cis-4-{[4-[(ethylamino)methyl]-6-(trifluoromethyl)pyridin-2-yl]oxy}cyclohexyl)-3-[4-(7H-pyrrolo[2,3-d]pyrimidin-4-yl)-1H-pyrazol-1-yl]azetidin-3-yl}acetonitrile] were less than 10 nM and more than 10.
For `C[C@H](NC(=O)c1cc(F)c(N2CC(CC#N)(n3cc(-c4ncnc5[nH]ccc45)cn3)C2)cc1F)C(F)(F)F` [Compound 16, 4-{3-(cyanomethyl)-3-[4-(7H-pyrrolo[2,3-d]pyrimidin-4-yl)-1H-pyrazol-1-yl]azetidin-1-yl}-2,5-difluoro-N-[(1S)-2,2,2-trifluoro-1-methylethyl]benzamide], the IC50 in test [1] is less than 10 nM. The JAK2/JAK1 in test [2] was more than 10.
Taken in the same sequence, the figures for `CC(C)(O)c1cc(O[C@H]2CC[C@@H](N3CC(CC#N)(n4cc(-c5ncnc6[nH]ccc56)cn4)C3)CC2)nc(C(F)(F)F)c1` [Compound 20, {1-(cis-4-{[4-(1-hydroxy-1-methylethyl)-6-(trifluoromethyl)pyridin-2-yl]oxy}cyclohexyl)-3-[4-(7H-pyrrolo[2,3-d]pyrimidin-4-yl)-1H-pyrazol-1-yl]azetidin-3-yl}acetonitrile] were less than 10 nM and more than 10.
The corresponding values for `N#CCC(C1CCN(c2nc3cccnc3o2)C1)n1cc(-c2ncnc3[nH]ccc23)cn1` (stereo not drawn) [Compound 7, 3-(1-[1,3]oxazolo[5,4-b]pyridin-2-ylpyrrolidin-3-yl)-3-[4-(7H-pyrrolo[2,3-d]pyrimidin-4-yl)-1H-pyrazol-1-yl]propanenitrile] are less than 10 nM and more than 10.
Turning to `N#CCC(CN1CCN(C(=O)c2ccc(C#N)cc2F)CC1)n1ccc(-c2ncnc3[nH]ccc23)c1` (stereo not drawn) [Compound 9, 4-[(4-{3-cyano-2-[3-(7H-pyrrolo[2,3-d]pyrimidin-4-yl)-1H-pyrrol-1-yl]propyl}piperazin-1-yl)carbonyl]-3-fluorobenzonitrile], in test [1], the IC50 is less than 10 nM. Also, in test [2], the JAK2/JAK1 is more than 10.
The corresponding values for `C[C@@H](CO)NCc1cc(OC2CCN([C@H]3C[C@](CC#N)(n4cc(-c5ncnc6[nH]ccc56)cn4)C3)CC2)nc(C(F)(F)F)c1` [Compound 23, {trans-3-(4-{[4-({[(1S)-2-hydroxy-1-methylethyl]amino}methyl)-6-(trifluoromethyl)pyridin-2-yl]oxy}piperidin-1-yl)-1-[4-(7H-pyrrolo[2,3-d]pyrimidin-4-yl)-1H-pyrazol-1-yl]cyclobutyl}acetonitrile] are less than 10 nM and more than 10.
The corresponding values for `C[C@@H](O)CNCc1cc(OC2CCN([C@H]3C[C@](CC#N)(n4cc(-c5ncnc6[nH]ccc56)cn4)C3)CC2)nc(C(F)(F)F)c1` [Compound 24, {trans-3-(4-{[4-({[(2R)-2-hydroxypropyl]amino}methyl)-6-(trifluoromethyl)pyridin-2-yl]oxy}piperidin-1-yl)-1-[4-(7H-pyrrolo[2,3-d]pyrimidin-4-yl)-1H-pyrazol-1-yl]cyclobutyl}acetonitrile] are less than 10 nM and more than 10.
The corresponding values for `N#CCC1(n2cc(-c3ncnc4[nH]ccc34)cn2)CN(C2CCN(C(=O)c3ccnc(C(F)(F)F)c3F)CC2)C1` [Compound 4, {1-{1-[3-Fluoro-2-(trifluoromethyl)isonicotinoyl]piperidin-4-yl}-3-[4-(7H-pyrrolo[2,3-d]pyrimidin-4-yl)-1H-pyrazol-1-yl]azetidin-3-yl}acetonitrile] are less than 10 nM and more than 10.
With `N#CC[C@]1(n2cc(-c3ncnc4[nH]ccc34)cn2)C[C@H](N2CCN(C(=O)c3ccnc(C(F)(F)F)n3)CC2)C1` [Compound 10, [trans-1-[4-(7H-pyrrolo[2,3-d]pyrimidin-4-yl)-1H-pyrazol-1-yl]-3-(4-{[2-(trifluoromethyl)pyrimidin-4-yl]carbonyl}piperazin-1-yl)cyclobutyl]acetonitrile], in test [1], the concentration for half-maximal inhibition (IC50) was less than 10 nM. The JAK2/JAK1 in test [2] is more than 10.
Consider `C[C@@H](O)c1nc2cnc3ccsc3c2n1[C@H]1CC[C@H](CC#N)OC1` [Compound 5, ((2R,5S)-5-{2-[(1R)-1-hydroxyethyl]-1H-imidazo[4,5-d]thieno[3,2-b]pyridin-1-yl}tetrahydro-2H-pyran-2-yl)acetonitrile], for which the IC50 in test [1] is less than 100 nM. Also, the JAK2/JAK1 in test [2] was more than 10.
The corresponding values for `N#CC[C@]1(n2cc(-c3ncnc4[nH]ccc34)cn2)C[C@H](N2CCC(Oc3cc(CN4CC(O)C4)cc(C(F)(F)F)n3)CC2)C1` [Compound 11, {trans-3-(4-{[4-[(3-hydroxyazetidin-1-yl)methyl]-6-(trifluoromethyl)pyridin-2-yl]oxy}piperidin-1-yl)-1-[4-(7H-pyrrolo[2,3-d]pyrimidin-4-yl)-1H-pyrazol-1-yl]cyclobutyl}acetonitrile] are less than 10 nM and more than 10.
In test [1], `N#CCC(CN1CCN(C(=O)c2ccc(C#N)cc2F)CC1)n1cc(-c2ncnc3[nH]ccc23)cn1` (stereo not drawn) [Compound 8, 4-[(4-{3-cyano-2-[4-(7H-pyrrolo[2,3-d]pyrimidin-4-yl)-1H-pyrazol-1-yl]propyl}piperazin-1-yl)carbonyl]-3-fluorobenzonitrile] came in with an IC50 of less than 10 nM. For the same compound, the JAK2/JAK1 in test [2] was more than 10.
Taken in the same sequence, the figures for `N#CC[C@]1(n2cc(-c3ncnc4[nH]ccc34)cn2)C[C@H](N2CCC(Oc3cc(CN4CCC[C@@H]4CO)cc(C(F)(F)F)n3)CC2)C1` [Compound 13, {trans-3-(4-{[4-{[(2R)-2-(hydroxymethyl)pyrrolidin-1-yl]methyl}-6-(trifluoromethyl)pyridin-2-yl]oxy}piperidin-1-yl)-1-[4-(7H-pyrrolo[2,3-d]pyrimidin-4-yl)-1H-pyrazol-1-yl]cyclobutyl}acetonitrile] were less than 10 nM and more than 10.
